These results are taken from US20250367166A1, “NEXT GENERATION DIPROVOCIMS THAT ACTIVATE THE INNATE AND ADAPTIVE IMMUNE RESPONSE” (The Scripps Research Institute, priority 2022, published 2025).

The target of assay [1] is TLR1/TLR2 (Mus musculus, UniProt Q9EPQ1+Q9QUN7). Put plainly: TNF-α release from thioglycolate-elicited mouse peritoneal macrophages (ELISA). Conditions: for Emax: 4 h, read-out: Efficacy (magnitude) of response versus diprovocim-1 (100%), mouse macrophages; for EC50: read-out: EC50 (nM) (mouse): EC50 TNF-α release from mouse macrophages, Table 6. Background: An ELISA detects its analyte on a solid surface through an enzyme-linked reagent.

Assay [2] has as its target TLR1/TLR2 (Homo sapiens, UniProt O60603+Q15399). Put plainly: TNF-α release from PMA-differentiated human THP-1 cells (ELISA).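 For all read-outs here: cells exposed to graded compound concentrations for 4 h, TNF-α quantified in supernatant, LPS as positive and DMSO as negative control, values are duplicate means.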 As to conditions: for Emax: THP-1, 4 h, read-out: Efficacy (magnitude) of response versus diprovocim-1 (100%), THP-1; for EC50: read-out: EC50 (nM) (THP-1): EC50 TNF-α release from human THP-1 cells, Table 6.

Sequence of TLR1/TLR2 (Homo sapiens, UniProt O60603+Q15399) (Q15399 25-786): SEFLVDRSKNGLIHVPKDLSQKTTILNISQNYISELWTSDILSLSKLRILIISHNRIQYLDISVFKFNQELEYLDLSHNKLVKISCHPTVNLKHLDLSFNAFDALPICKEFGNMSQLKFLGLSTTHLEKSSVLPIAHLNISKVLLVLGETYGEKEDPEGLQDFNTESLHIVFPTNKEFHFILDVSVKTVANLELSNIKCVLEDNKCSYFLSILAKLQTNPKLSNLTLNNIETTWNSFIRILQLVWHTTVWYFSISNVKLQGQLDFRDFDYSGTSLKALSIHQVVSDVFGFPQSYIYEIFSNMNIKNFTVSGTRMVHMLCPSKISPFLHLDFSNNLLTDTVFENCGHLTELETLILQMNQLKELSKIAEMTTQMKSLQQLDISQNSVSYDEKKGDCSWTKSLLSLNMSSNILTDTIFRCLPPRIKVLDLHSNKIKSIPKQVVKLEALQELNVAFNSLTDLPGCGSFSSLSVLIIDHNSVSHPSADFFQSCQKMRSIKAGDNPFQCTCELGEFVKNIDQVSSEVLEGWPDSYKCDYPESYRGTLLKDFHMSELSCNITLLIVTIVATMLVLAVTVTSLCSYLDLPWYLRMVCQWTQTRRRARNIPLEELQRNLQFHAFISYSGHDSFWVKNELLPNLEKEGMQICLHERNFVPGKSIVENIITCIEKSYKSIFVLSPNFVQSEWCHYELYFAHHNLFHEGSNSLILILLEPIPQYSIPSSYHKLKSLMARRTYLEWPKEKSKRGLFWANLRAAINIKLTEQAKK
Sequence of TLR1/TLR2 (Homo sapiens, UniProt O60603+Q15399) (O60603 21-784): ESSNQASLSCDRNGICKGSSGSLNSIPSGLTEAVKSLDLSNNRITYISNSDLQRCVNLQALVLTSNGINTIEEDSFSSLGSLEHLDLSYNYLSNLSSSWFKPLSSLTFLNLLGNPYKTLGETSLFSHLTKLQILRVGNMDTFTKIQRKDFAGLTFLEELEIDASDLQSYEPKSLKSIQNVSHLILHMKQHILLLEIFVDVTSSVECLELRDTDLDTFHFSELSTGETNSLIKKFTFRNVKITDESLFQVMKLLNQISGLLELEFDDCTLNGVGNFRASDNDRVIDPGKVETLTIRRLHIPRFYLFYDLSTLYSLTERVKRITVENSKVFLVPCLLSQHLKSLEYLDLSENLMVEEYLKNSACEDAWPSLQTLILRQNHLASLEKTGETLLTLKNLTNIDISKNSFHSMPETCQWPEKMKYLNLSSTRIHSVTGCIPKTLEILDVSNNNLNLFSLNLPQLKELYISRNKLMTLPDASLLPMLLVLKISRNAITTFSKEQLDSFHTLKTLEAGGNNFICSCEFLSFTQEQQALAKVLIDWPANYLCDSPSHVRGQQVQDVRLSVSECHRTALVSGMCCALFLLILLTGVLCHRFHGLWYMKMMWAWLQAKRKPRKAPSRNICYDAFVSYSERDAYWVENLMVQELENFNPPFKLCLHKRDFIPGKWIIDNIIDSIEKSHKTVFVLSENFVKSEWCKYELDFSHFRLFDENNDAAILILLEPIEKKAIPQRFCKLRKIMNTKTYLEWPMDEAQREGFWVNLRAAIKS
Sequence of TLR1/TLR2 (Mus musculus, UniProt Q9EPQ1+Q9QUN7) (Q9EPQ1 26-795): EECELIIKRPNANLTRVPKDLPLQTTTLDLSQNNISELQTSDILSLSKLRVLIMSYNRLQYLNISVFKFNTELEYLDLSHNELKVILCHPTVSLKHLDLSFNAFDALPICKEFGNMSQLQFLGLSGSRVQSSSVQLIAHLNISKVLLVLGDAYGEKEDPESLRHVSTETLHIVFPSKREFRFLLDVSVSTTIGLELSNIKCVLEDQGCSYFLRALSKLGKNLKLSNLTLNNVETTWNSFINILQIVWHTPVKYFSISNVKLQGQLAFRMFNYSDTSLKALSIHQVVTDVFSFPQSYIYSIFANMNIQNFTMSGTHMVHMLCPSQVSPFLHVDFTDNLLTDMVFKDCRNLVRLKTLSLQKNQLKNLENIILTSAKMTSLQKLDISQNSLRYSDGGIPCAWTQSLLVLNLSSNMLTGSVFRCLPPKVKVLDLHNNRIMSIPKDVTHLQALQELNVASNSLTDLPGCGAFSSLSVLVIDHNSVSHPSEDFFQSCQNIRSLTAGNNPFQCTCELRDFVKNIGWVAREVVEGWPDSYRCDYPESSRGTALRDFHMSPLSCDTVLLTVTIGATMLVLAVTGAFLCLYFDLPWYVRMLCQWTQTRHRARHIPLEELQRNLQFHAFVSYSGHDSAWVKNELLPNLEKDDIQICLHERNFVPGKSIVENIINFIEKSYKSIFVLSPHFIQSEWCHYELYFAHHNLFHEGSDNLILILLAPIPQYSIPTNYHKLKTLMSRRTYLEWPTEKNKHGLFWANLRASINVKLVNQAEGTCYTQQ
Sequence of TLR1/TLR2 (Mus musculus, UniProt Q9EPQ1+Q9QUN7) (Q9QUN7 25-784): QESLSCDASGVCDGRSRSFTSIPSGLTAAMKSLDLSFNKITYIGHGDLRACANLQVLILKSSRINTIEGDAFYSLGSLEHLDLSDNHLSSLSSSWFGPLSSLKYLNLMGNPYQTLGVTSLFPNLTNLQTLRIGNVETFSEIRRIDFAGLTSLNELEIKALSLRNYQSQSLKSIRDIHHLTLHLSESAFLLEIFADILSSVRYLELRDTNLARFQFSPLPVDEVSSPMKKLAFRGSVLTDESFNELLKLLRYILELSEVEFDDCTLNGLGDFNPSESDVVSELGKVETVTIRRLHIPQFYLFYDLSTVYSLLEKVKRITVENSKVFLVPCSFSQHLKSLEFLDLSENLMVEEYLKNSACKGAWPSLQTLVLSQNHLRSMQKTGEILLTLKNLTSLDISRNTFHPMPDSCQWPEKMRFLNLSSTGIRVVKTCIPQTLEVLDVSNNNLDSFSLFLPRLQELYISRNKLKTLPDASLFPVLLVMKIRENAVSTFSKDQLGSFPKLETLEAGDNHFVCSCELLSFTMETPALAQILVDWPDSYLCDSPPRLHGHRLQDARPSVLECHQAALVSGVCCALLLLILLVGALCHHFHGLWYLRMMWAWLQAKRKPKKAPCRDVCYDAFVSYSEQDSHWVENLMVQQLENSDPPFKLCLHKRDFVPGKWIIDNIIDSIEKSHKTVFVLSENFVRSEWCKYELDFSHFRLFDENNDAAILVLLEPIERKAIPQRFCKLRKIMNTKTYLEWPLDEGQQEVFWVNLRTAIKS

By EC50 is commonly meant the midpoint of the concentration-response curve. Regarding `CC(C)(C)OC(=O)/C=C/C(=O)NCC(=O)OCCCCCCCCCCCCNC(=O)[C@@H]1CN(C(=O)c2ccc(C(=O)N3C[C@@H](C(=O)N[C@H]4C[C@@H]4c4ccccc4)[C@H](C(=O)N[C@H]4C[C@@H]4c4ccccc4)C3)cc2)C[C@H]1C(=O)N[C@H]1C[C@@H]1c1ccccc1` [Compound 81, (E)-tert-Butyl 4-((2-((12-((3S,4S)-1-(4-((3S,4S)-3,4-bis(((1S,2R)-2-phenylcyclopropyl)carbamoyl)-pyrrolidine-1-carbonyl)benzoyl)-4-(((1S,2R)-2-phenylcyclopropyl)carbamoyl)pyrrolidine-3-carboxamido)dodecyl)oxy)-2-oxoethyl)amino)-4-oxobut-2-enoate], at TLR1/TLR2 [1], the Emax amounted to 110% and the EC50 was found to be 62 nM. Besides, at TLR1/TLR2 [2], the Emax came out at 90% and the EC50 was 2 nM.

In the case of `O=C(O)/C=C/C(=O)NCC(=O)OCCCCCCCCCCCCNC(=O)[C@@H]1CN(C(=O)c2ccc(C(=O)N3C[C@@H](C(=O)N[C@H]4C[C@@H]4c4ccccc4)[C@H](C(=O)N[C@H]4C[C@@H]4c4ccccc4)C3)cc2)C[C@H]1C(=O)N[C@H]1C[C@@H]1c1ccccc1` [Compound 82, (E)-4-((2-((12-((3S,4S)-1-(4-((3S,4S)-3,4-Bis(((1S,2R)-2-phenylcyclopropyl)carbamoyl)-pyrrolidine-1-carbonyl)benzoyl)-4-(((1S,2R)-2-phenylcyclopropyl)carbamoyl)pyrrolidine-3-carboxamido)dodecyl)oxy)-2-oxoethyl)amino)-4-oxobut-2-enoic acid], on TLR1/TLR2 [1], the Emax amounted to 60% and the EC50 was found to be 7 nM. Also, on TLR1/TLR2 [2], the Emax amounted to 100% and the EC50 was determined as 0.32 nM.

With `CC(C)(C)OC(=O)C(=O)NCC(=O)OCCCCCCCCCCCCNC(=O)[C@@H]1CN(C(=O)c2ccc(C(=O)N3C[C@@H](C(=O)N[C@H]4C[C@@H]4c4ccccc4)[C@H](C(=O)N[C@H]4C[C@@H]4c4ccccc4)C3)cc2)C[C@H]1C(=O)N[C@H]1C[C@@H]1c1ccccc1` [Compound 83, tert-Butyl 2-((2-((12-((3S,4S)-1-(4-((3S,4S)-3,4-bis(((1S,2R)-2-phenylcyclopropyl)carbamoyl)-pyrrolidine-1-carbonyl)benzoyl)-4-(((1S,2R)-2-phenylcyclopropyl)carbamoyl)pyrrolidine-3-carboxamido)dodecyl)oxy)-2-oxoethyl)amino)-2-oxoacetate], the Emax at TLR1/TLR2 [1] was 400%; on TLR1/TLR2 [2], 110%. Moreover, the values for the EC50 on TLR1/TLR2 [1] and at TLR1/TLR2 [2] were 16 nM and 0.54 nM, respectively.

On to `O=C(CNC(=O)C(=O)O)OCCCCCCCCCCCCNC(=O)[C@@H]1CN(C(=O)c2ccc(C(=O)N3C[C@@H](C(=O)N[C@H]4C[C@@H]4c4ccccc4)[C@H](C(=O)N[C@H]4C[C@@H]4c4ccccc4)C3)cc2)C[C@H]1C(=O)N[C@H]1C[C@@H]1c1ccccc1` [Compound 84, 2-((2-((12-((3S,4S)-1-(4-((3S,4S)-3,4-Bis(((1S,2R)-2-phenylcyclopropyl)carbamoyl)pyrrolidine-1-carbonyl)benzoyl)-4-(((1S,2R)-2-phenylcyclopropyl)carbamoyl)pyrrolidine-3-carboxamido)-dodecyl)oxy)-2-oxoethyl)amino)-2-oxoacetic acid], for which the results for the Emax at TLR1/TLR2 [1] and on TLR1/TLR2 [2] were 250% and 120%, respectively. Moreover, the half-maximal effective concentration (EC50) is 6.7 nM at TLR1/TLR2 [1] and 0.23 nM at TLR1/TLR2 [2].

Regarding `CC(C)(C)OC(=O)c1ccc(C(=O)NCCOCCCCCCCCCCCCNC(=O)[C@@H]2CN(C(=O)c3ccc(C(=O)N4C[C@@H](C(=O)N[C@H]5C[C@@H]5c5ccccc5)[C@H](C(=O)N[C@H]5C[C@@H]5c5ccccc5)C4)cc3)C[C@H]2C(=O)N[C@H]2C[C@@H]2c2ccccc2)cc1` [Compound 85, tert-Butyl 4-((2-((12-((3S,4S)-1-(4-((3S,4S)-3,4-bis-(((1S,2R)-2-phenylcyclopropyl)carbamoyl)-pyrrolidine-1-carbonyl)benzoyl)-4-(((1S,2R)-2-phenylcyclopropyl)-carbamoyl)pyrrolidine-3-carboxamido)dodecyl)-oxy)ethyl)carbamoyl)benzoate], at TLR1/TLR2 [1], the Emax worked out at 160% and the EC50 is 36 nM. Besides, on TLR1/TLR2 [2], the Emax came out at 110% and the EC50 came out at 13.4 nM.

Regarding `O=C(O)c1ccc(C(=O)NCCOCCCCCCCCCCCCNC(=O)[C@@H]2CN(C(=O)c3ccc(C(=O)N4C[C@@H](C(=O)N[C@H]5C[C@@H]5c5ccccc5)[C@H](C(=O)N[C@H]5C[C@@H]5c5ccccc5)C4)cc3)C[C@H]2C(=O)N[C@H]2C[C@@H]2c2ccccc2)cc1` [Compound 86, 4-((2-((12-((3S,4S)-1-(4-((3S,4S)-3,4-Bis(((1S,2R)-2-phenylcyclopropyl)carbamoyl)pyrrolidine-1-carbonyl)benzoyl)-4-(((1S,2R)-2-phenylcyclopropyl)-carbamoyl)pyrrolidine-3-carboxamido)dodecyl)-oxy)ethyl)carbamoyl)benzoic acid], on TLR1/TLR2 [1], the Emax was determined as 50% and the half-maximal effective concentration (EC50) turned out to be 49 nM. Also, at TLR1/TLR2 [2], the Emax turned out to be 100% and the EC50 came out at 2.9 nM.
